We go through six molecules from BindingDB's records for doi:10.1021/acsmedchemlett.4c00023 (n/a, 2024).

For orientation: IC50 means the concentration that gives 50% inhibition.

The experiment addresses Mitogen-activated protein kinase kinase kinase kinase 1 (Homo sapiens, UniProt Q92918). Nature of the experiment: Inhibition of full length recombinant human N-terminal GST-tagged HPK1 expressed in baculovirus infected Sf21 insect cells preincubated for 15 mins followed by MBP and ATP addition measured after 120 mins by ADP-Glo reagent based assay. For orientation: In ADP-Glo the light output rises with the ADP produced.

SMILES strings stand for the structures.

Sequence of Mitogen-activated protein kinase kinase kinase kinase 1 (Q92918 whole entry): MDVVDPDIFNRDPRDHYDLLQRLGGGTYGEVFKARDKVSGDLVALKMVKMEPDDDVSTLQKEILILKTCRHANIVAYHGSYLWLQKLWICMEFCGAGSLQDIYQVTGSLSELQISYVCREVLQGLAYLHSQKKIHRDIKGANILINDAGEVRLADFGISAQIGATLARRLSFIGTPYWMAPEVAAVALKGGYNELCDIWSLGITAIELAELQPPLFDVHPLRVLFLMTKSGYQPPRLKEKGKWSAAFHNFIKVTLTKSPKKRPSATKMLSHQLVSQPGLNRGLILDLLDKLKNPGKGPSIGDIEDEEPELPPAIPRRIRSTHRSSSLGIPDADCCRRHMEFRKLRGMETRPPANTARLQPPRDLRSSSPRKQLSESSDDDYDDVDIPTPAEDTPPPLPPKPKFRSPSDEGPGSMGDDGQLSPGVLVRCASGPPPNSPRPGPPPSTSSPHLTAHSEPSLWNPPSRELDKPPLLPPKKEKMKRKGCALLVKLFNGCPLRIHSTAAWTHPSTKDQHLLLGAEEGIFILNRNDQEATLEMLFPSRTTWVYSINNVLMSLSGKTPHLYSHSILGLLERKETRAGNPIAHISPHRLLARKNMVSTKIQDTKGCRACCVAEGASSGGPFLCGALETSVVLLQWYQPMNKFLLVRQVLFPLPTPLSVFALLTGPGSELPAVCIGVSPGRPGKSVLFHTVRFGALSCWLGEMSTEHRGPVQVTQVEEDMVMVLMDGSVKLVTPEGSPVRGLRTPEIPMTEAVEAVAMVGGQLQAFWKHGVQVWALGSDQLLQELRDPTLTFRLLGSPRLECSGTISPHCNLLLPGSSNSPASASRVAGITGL

`Cc1c(N2CCc3cnc(Nc4ccc(Cn5cccn5)cc4)nc3C2)cnc2c1NCCO2` [US20240025922, Example 187]: the IC50 is < 100 nM.
For the molecule `Cc1c(N2CCc3cnc(Nc4ccc5c(c4)CCOC5)nc3C2)cnc2c1NCCO2` [US20240025922, Example 84], the IC50 is < 100 nM.
For `Cc1c(N2CCc3cnc(Nc4ccc(Cn5nccn5)cc4)nc3C2)cnc2c1NCCO2` [US20240025922, Example 185], the IC50 is < 100 nM.
Then `COC1CCN(c2ccc(Nc3ncc4c(n3)CN(c3cnc5c(c3C)NCCO5)CC4)cc2)CC1` [US20240025922, Example 113], with < 100 nM; and `CCc1c(N2CCc3cnc(Nc4ccc(CS(C)(=O)=O)cc4)nc3C2)cnc2c1NCCO2` [US20240025922, Example 145], with < 100 nM.
Then `Cc1c(N2CCc3cnc(Nc4ccc(N5CCN(C)CC5)cc4)nc3C2)cnc2c1NCCO2` [US20240025922, Example 55], with < 100 nM.
